Test: In vitro non-sink dissolution, gastric-to-intestinal media transfer test
Format: physicochemical
Design: AUC free: concentration or dose not given beside the values; AUC total: unit not given here
Conditions: for AUC free: free drug; for AUC total: non-sink
[1] = Table 5 (nifedipine), Fasted Simulated Gastric (0.1 N HCl)
[2] = Table 5 (nifedipine), Fasted Simulated Intestinal (FaSSIF, pH 6.8)

`COc1ccc2c(c1)c(CC(=O)O)c(C)n2C(=O)c1ccc(Cl)cc1` [indomethacin crystalline API, indomethacin] gave an AUC free (Table 2, Fasted Simulated Gastric (0.1 N HCl)) of 0.0, an AUC total (Table 2, Fasted Simulated Gastric (0.1 N HCl), 2 mg indomethacin per mL) of 1020.4 and an AUC free (Table 2, Fasted Simulated Intestinal (FaSSIF, H 6.8)) of 63324.8. The AUC total (Table 2, Fasted Simulated Intestinal (FaSSIF, H 6.8), 1 mg indomethacin per mL) was 81054.9, the AUC free [1] was 68.9 and the AUC total [1] was 483.4. It also gave an AUC free [2] of 1349.5 and an AUC total [2] of 2810.0.

From US20180344646A1, “AMORPHOUS DISPERSION GRANULES AND ORAL DOSAGE FORMS” (PATHEON DEVELOPMENT SERVICES INC., priority 2015, published 2018)
